Article PMC2248166, “Quantitative peptide binding motifs for 19 human and mouse MHC class I molecules derived using positional scanning combinatorial peptide libraries” (Immunome Research, 2008)
Where a SMILES comes first, the peptide text is derived from it.

Experiments:
Experiment in all cases: biochemical
Assay type in all cases: binding
HLA B*0801 = HLA B*0801 (Homo sapiens, UniProt P01889, A93T/A95T/D138N/E176V/E187T/K202T/Q94N/R180D/S35A/V36M/Y33D/Y91F)
HLA B*1501 = HLA B*1501 (Homo sapiens, UniProt P01889, A329T/A93T/A95T/C349S/D201E/D98Y/E187L/E204Q/E69M/E70A/K202T/N87E/Q94N/R155S/R180W/S121R/S35A/S48A/V306I/V36M/Y140S/Y91S)
HLA B*1503 = HLA B*1503 (Homo sapiens, UniProt P01889, A329T/A93T/A95T/C349S/D201E/D98Y/E187L/E204Q/K202T/N87E/Q94N/R155S/R180L/S121R/S35A/V306I/V36M/Y140S/Y91S)
HLA A*3001 = HLA A*3001 (Homo sapiens, UniProt P04439, D140H/D185E/E176W/F33S/G80R/H175R/K168Q/R138E/R41S)
Chain of HLA A*3001 (P04439 25-365 limits assumed, stated change not applied): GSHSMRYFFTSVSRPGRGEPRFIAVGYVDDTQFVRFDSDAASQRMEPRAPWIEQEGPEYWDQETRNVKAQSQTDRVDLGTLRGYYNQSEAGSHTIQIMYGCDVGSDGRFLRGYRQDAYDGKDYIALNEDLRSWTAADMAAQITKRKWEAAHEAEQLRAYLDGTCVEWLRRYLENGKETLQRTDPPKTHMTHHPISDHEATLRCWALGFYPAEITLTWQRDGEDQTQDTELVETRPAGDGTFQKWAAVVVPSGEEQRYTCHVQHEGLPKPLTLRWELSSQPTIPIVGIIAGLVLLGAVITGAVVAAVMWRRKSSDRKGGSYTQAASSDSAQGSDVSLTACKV

Structure (SMILES)	IC50 (HLA B*0801)	IC50 (HLA B*1501)	IC50 (HLA B*1503)	IC50 (HLA A*3001)
CSCC[C@H](NC(=O)[C@@H](N)CO)C(=O)N[C@@H](Cc1c[nH]cn1)C(=O)N[C@@H](Cc1ccccc1)C(=O)N[C@@H](Cc1ccc(O)cc1)C(=O)NCC(=O)N[C@@H](Cc1c[nH]c2ccccc12)C(=O)N[C@@H](CO)C(=O)N[C@@H](CC(C)C)C(=O)O [3102.0946] (H-SMHFYGWSL-OH)	2.9 nM	63 nM		
CC(C)C[C@H](NC(=O)[C@@H](N)CC(C)C)C(=O)N[C@@H](CCCCN)C(=O)N1CCC[C@H]1C(=O)N[C@@H](CCCNC(=N)N)C(=O)N[C@@H](CS)C(=O)N[C@@H](CC(N)=O)C(=O)N1CCC[C@H]1C(=O)N[C@@H](C)C(=O)O [3102.0901] (H-LLKPRCNPA-OH)	1.2 nM	21 nM		
CSCC[C@H](NC(=O)[C@H](CC(=O)O)NC(=O)[C@@H](NC(=O)[C@H](Cc1ccccc1)NC(=O)[C@H](Cc1c[nH]cn1)NC(=O)[C@H](CCSC)NC(=O)[C@H](CO)NC(=O)[C@H](CCC(N)=O)NC(=O)[C@@H](N)Cc1ccccc1)[C@@H](C)O)C(=O)O [3102.1283] (H-FQSMHFTDM-OH)	84 nM		5.1 nM	
CSCC[C@H](N)C(=O)N[C@@H](Cc1ccccc1)C(=O)N[C@@H](CCCNC(=N)N)C(=O)N[C@@H](CCCCN)C(=O)N[C@@H](CCCCN)C(=O)N[C@@H](CCCNC(=N)N)C(=O)N[C@@H](CC(C)C)C(=O)N[C@@H](Cc1ccccc1)C(=O)N[C@@H](CC(C)C)C(=O)O [3102.0580] (H-MFRKKRLFL-OH)	1.1 nM			10 nM
CC(C)C[C@H](NC(=O)[C@H](C)NC(=O)[C@H](CCCNC(=N)N)NC(=O)[C@H](Cc1c[nH]cn1)NC(=O)[C@H](CC(C)C)NC(=O)[C@H](Cc1c[nH]c2ccccc12)NC(=O)[C@H](CCCNC(=N)N)NC(=O)[C@@H](NC(=O)[C@@H](N)Cc1ccccc1)C(C)C)C(=O)O [3102.0526] (H-FVRWLHRAL-OH)	1 nM	16 nM		
CC(C)[C@H](NC(=O)[C@H](CCCNC(=N)N)NC(=O)[C@@H](N)Cc1ccccc1)C(=O)N[C@H](C(=O)N[C@@H](CCCCN)C(=O)N1CCC[C@H]1C(=O)N[C@@H](CC(N)=O)C(=O)N[C@@H](CO)C(=O)N[C@@H](Cc1ccccc1)C(=O)O)C(C)C [3102.1127] (H-FRVVKPNSF-OH)	91 nM	108 nM		
CC[C@H](C)[C@H](NC(=O)[C@H](CCCCN)NC(=O)[C@@H]1CCCN1C(=O)[C@H](CCCNC(=N)N)NC(=O)[C@@H](NC(=O)[C@@H](N)CC(C)C)[C@@H](C)CC)C(=O)N[C@@H](CC(C)C)C(=O)N[C@@H](CO)C(=O)N[C@@H](CCSC)C(=O)O [3102.0983] (H-LIRPKILSM-OH)	0.55 nM	10 nM		
CC[C@H](C)[C@H](N)C(=O)N[C@@H](CC(C)C)C(=O)N[C@@H](Cc1c[nH]cn1)C(=O)N[C@@H](Cc1c[nH]cn1)C(=O)N[C@@H](Cc1c[nH]cn1)C(=O)N[C@@H](CCCNC(=N)N)C(=O)N[C@@H](CC(N)=O)C(=O)N[C@H](C(=O)N[C@@H](Cc1ccccc1)C(=O)O)C(C)C [3102.1250] (H-ILHHHRNVF-OH)	13 nM		1.3 nM	
CC[C@H](C)[C@H](NC(=O)[C@@H]1CCCN1C(=O)[C@H](CC(C)C)NC(=O)[C@H](Cc1ccccc1)NC(=O)[C@H](CO)NC(=O)[C@H](CCSC)NC(=O)[C@H](CCCCN)NC(=O)[C@H](CO)NC(=O)[C@@H](N)CCC(=O)O)C(=O)O [3102.0979] (H-ESKMSFLPI-OH)	1.1 nM	358 nM		
CC[C@H](C)[C@H](NC(=O)[C@@H](N)CC(C)C)C(=O)NCC(=O)N[C@@H](C)C(=O)N[C@@H](CCCNC(=N)N)C(=O)N[C@@H](CCCNC(=N)N)C(=O)N[C@H](C(=O)N[C@@H](CO)C(=O)N[C@@H](Cc1ccccc1)C(=O)O)[C@@H](C)O [3102.0774] (H-LIGARRTSF-OH)	1.5 nM	40 nM		
CC[C@H](C)[C@H](NC(=O)[C@H](Cc1ccccc1)NC(=O)[C@H](CCSC)NC(=O)[C@H](Cc1ccccc1)NC(=O)[C@H](CCCCN)NC(=O)[C@H](CC(N)=O)NC(=O)[C@H](CCCNC(=N)N)NC(=O)[C@@H](NC(=O)[C@@H](N)CCCNC(=N)N)[C@@H](C)CC)C(=O)O [3102.0998] (H-RIRNKFMFI-OH)	1.6 nM			0.069 nM
CC[C@H](C)[C@H](NC(=O)[C@@H](N)Cc1ccccc1)C(=O)N[C@@H](Cc1ccccc1)C(=O)N[C@@H](CC(C)C)C(=O)N[C@@H](CCCCN)C(=O)N[C@@H](CCCCN)C(=O)N[C@@H](CC(N)=O)C(=O)N[C@@H](CCC(=O)O)C(=O)N[C@@H](CC(C)C)C(=O)O [3102.0673] (H-FIFLKKNEL-OH)	97 nM			44 nM
CC(C)[C@H](NC(=O)[C@H](C)NC(=O)[C@H](CO)NC(=O)[C@H](Cc1ccc(O)cc1)NC(=O)[C@H](CCCNC(=N)N)NC(=O)CNC(=O)[C@H](Cc1ccc(O)cc1)NC(=O)[C@@H](NC(=O)[C@@H](N)CCCCN)C(C)C)C(=O)O [3102.0117] (H-KVYGRYSAV-OH)	4.2 nM	95 nM		
CC[C@H](C)[C@H](NC(=O)[C@H](Cc1ccccc1)NC(=O)[C@H](Cc1ccccc1)NC(=O)[C@@H](N)CCSC)C(=O)N[C@@H](CCCNC(=N)N)C(=O)N[C@@H](Cc1ccccc1)C(=O)NCC(=O)N[C@@H](CCCCN)C(=O)N[C@@H](CCSC)C(=O)O [3102.0559] (H-MFFIRFGKM-OH)	32 nM			
CC[C@H](C)[C@H](NC(=O)[C@H](CC(N)=O)NC(=O)[C@@H](N)CCCNC(=N)N)C(=O)N[C@@H](C)C(=O)N[C@@H](CCCNC(=N)N)C(=O)N[C@@H](Cc1c[nH]cn1)C(=O)N[C@@H](CC(C)C)C(=O)N[C@@H](C)C(=O)N[C@@H](CC(C)C)C(=O)O [3102.0780] (H-RNIARHLAL-OH)	3.2 nM			
CC[C@H](C)[C@H](NC(=O)[C@@H](N)CS)C(=O)N[C@H](C(=O)N[C@@H](CC(N)=O)C(=O)N[C@@H](CCCCN)C(=O)N[C@@H](Cc1ccccc1)C(=O)N[C@@H](CCSC)C(=O)N[C@@H](CO)C(=O)N[C@@H](Cc1ccccc1)C(=O)O)C(C)C [3102.0620] (H-CIVNKFMSF-OH)	60 nM			
CC[C@H](C)[C@H](NC(=O)[C@@H]1CCCN1C(=O)[C@H](CCCNC(=N)N)NC(=O)[C@H](CCCNC(=N)N)NC(=O)[C@H](CCC(=O)O)NC(=O)[C@H](CCCCN)NC(=O)[C@H](CCSC)NC(=O)[C@@H](N)[C@@H](C)O)C(=O)N[C@@H](CC(C)C)C(=O)O [3102.0600] (H-TMKERRPIL-OH)	1.8 nM			
CC(C)C[C@H](NC(=O)[C@H](Cc1ccccc1)NC(=O)[C@H](Cc1ccc(O)cc1)NC(=O)[C@H](CC(C)C)NC(=O)[C@H](CCCNC(=N)N)NC(=O)[C@H](CCC(N)=O)NC(=O)[C@H](CC(C)C)NC(=O)[C@H](Cc1ccccc1)NC(=O)[C@@H](N)Cc1ccccc1)C(=O)O [3102.0589] (H-FFLQRLYFL-OH)	6.8 nM			
CC[C@H](C)[C@H](NC(=O)CNC(=O)[C@H](Cc1c[nH]cn1)NC(=O)[C@H](CCCNC(=N)N)NC(=O)[C@H](CCC(N)=O)NC(=O)[C@H](CC(C)C)NC(=O)[C@H](CCCCN)NC(=O)[C@@H](N)CO)C(=O)N[C@@H](CC(C)C)C(=O)O [3102.0549] (H-SKLQRHGIL-OH)	16 nM			
CC(C)C[C@H](NC(=O)[C@H](CO)NC(=O)CNC(=O)[C@@H]1CCCN1C(=O)[C@H](CCCNC(=N)N)NC(=O)[C@H](Cc1ccccc1)NC(=O)[C@H](CCCCN)NC(=O)[C@H](Cc1ccccc1)NC(=O)[C@@H](N)CO)C(=O)O [3102.0734] (H-SFKFRPGSL-OH)	3 nM			
CC[C@H](C)[C@H](NC(=O)[C@H](CC(C)C)NC(=O)[C@@H](N)CO)C(=O)N1CCC[C@H]1C(=O)N[C@@H](CCCNC(=N)N)C(=O)N[C@@H](CC(C)C)C(=O)N[C@H](C(=O)N[C@@H](CC(=O)O)C(=O)N[C@@H](Cc1ccccc1)C(=O)O)C(C)C [3102.0730] (H-SLIPRLVDF-OH)	13 nM			
CC(C)C[C@H](NC(=O)[C@@H](NC(=O)[C@H](CCCNC(=N)N)NC(=O)[C@H](Cc1ccccc1)NC(=O)[C@H](CCCCN)NC(=O)[C@H](CO)NC(=O)[C@H](CC(C)C)NC(=O)[C@H](CCC(N)=O)NC(=O)[C@@H](N)CC(=O)O)[C@@H](C)O)C(=O)O [3102.0710] (H-DQLSKFRTL-OH)	7.4 nM			
CC(C)[C@H](NC(=O)[C@H](Cc1ccc(O)cc1)NC(=O)[C@H](CCCNC(=N)N)NC(=O)[C@H](Cc1ccccc1)NC(=O)[C@H](CS)NC(=O)[C@H](CCCCN)NC(=O)[C@H](Cc1ccccc1)NC(=O)[C@@H](N)Cc1ccccc1)C(=O)N[C@@H](Cc1ccccc1)C(=O)O [3102.0760] (H-FFKCFRYVF-OH)	11 nM			
CSCC[C@H](NC(=O)[C@H](CO)NC(=O)[C@H](Cc1c[nH]cn1)NC(=O)[C@H](CCCCN)NC(=O)[C@@H](NC(=O)[C@H](Cc1ccc(O)cc1)NC(=O)[C@H](CCSC)NC(=O)[C@@H](N)Cc1ccccc1)[C@@H](C)O)C(=O)N[C@@H](CC(C)C)C(=O)O [3102.0684] (H-FMYTKHSML-OH)	0.2 nM			
CC[C@H](C)[C@H](NC(=O)[C@H](CO)NC(=O)[C@@H](NC(=O)[C@H](CC(C)C)NC(=O)[C@H](CCCCN)NC(=O)[C@H](CCSC)NC(=O)[C@H](CCCCN)NC(=O)[C@@H](NC(=O)[C@@H](N)CO)[C@@H](C)CC)C(C)C)C(=O)O [3102.0585] (H-SIKMKLVSI-OH)	16 nM			
CSCC[C@H](NC(=O)[C@H](CCCNC(=N)N)NC(=O)[C@H](Cc1ccccc1)NC(=O)[C@@H]1CCCN1C(=O)[C@H](CCSC)NC(=O)[C@H](CCCCN)NC(=O)[C@H](CC(C)C)NC(=O)[C@@H](N)CC(C)C)C(=O)N[C@H](C(=O)O)C(C)C [3102.0749] (H-LLKMPFRMV-OH)	7.1 nM			
